Read-outs that look alike come from different tables or passages of the source.
Biological target: RpedOBP38 (Riptortus pedestris, UniProt A0A2Z4HQ26)
Assay: Fluorescence competitive binding assay (1-NPN displacement)
Details: for IC50: 2 μM recombinant RpedOBP38 and 1-NPN, PBS pH 7.4, three replicates
Text: Recombinant RpedOBP38 binding to putative chemical ligands was characterized with a microplate reader (BioTek Synergy H1, United States). Fluorescence intensity values at the excitation wavelength of 337 nm and a maximum fluorescence emission wavelength of 450 nm were plotted against the free concentration of ligand for the measurement of dissociation constants, selecting candidate ligands from among 36 volatile compounds that included 11 green leaf volatiles ([Chen et al., 2018]; [Guo and Wang, 2019]; [Cheng et al., 2020]; [Hong et al., 2022]; [Tang et al., 2023]; [Zhu et al., 2023]), 11 soybean volatiles ([Wang et al., 2019a]; [Zhu et al., 2022]), 10 repellent activity volatiles ([Zhang et al., 2013]; [Zhang et al., 2014]), and 4 aggregation pheromone compounds ([Leal et al., 1995]; [Yasuda et al., 2007]). HPLC-grade methanol was used for the dissolution of the probe N-phenyl-1-naphthylamine (1-NPN) and all ligands. The ability of RpedOBP38 to bind 1-NPN was assessed by using 10 mM PBS (pH 7.4) to prepare a 2 μM purified protein solution, titrating with 1 mM 1-NPN in methanol to prepare final concentrations from 2–20 μM. RpedOBP38 binding to each ligand was evaluated in a solution consisting of 2 μM purified protein and 1-NPN, followed by titration through the addition of ligands until no further decrease in the fluorescence intensity was observed. Ligands were independently replicated three times, and dissociation constants for each ligand were measured as follows: Ki = [IC50]/(1 + [1-NPN]/K1-NPN), where IC50 denotes the ligand concentration when the fluorescence intensity is half of the initial value [1-NPN] is the free 1-NPN concentration, and K1-NPN is the dissociation constant for the RpedOBP38/1-NPN complex ([Campanacci et al., 2001]).

[1] = values as quoted in running text
[2] = Ki = [IC50]/(1 + [1-NPN]/K1-NPN), 2 μM protein and 1-NPN, Ki > 40 considered weak binding

Chain of RpedOBP38 (A0A2Z4HQ26 entry or part of it): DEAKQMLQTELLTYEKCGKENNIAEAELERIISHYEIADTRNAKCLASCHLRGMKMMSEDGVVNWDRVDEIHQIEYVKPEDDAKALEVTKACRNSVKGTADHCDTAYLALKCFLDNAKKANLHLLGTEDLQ

Row | Compound | Ki [µM] | IC50 [µM] | Ki [1] [µM] | Ki [2] [µM]
1 | C=C(C)C1CC=C(C)C(=O)C1 (single isomer, unassigned; (-)) [(−)-carvone] | 27.2 ± 3.88 | 36.2 ± 5.17 | 27.2 | –
2 | CC1=CC[C@](O)(C(C)C)CC1 [(+) -4-terpineol] | 14 ± 0.321 | 18.7 ± 0.428 | 14 | –
3 | C=C(C)[C@H]1CC=C(C)C(=O)C1 [(+)-carvone] | – | > 40 | – | > 40
4 | CC1=CC[C@@](O)(C(C)C)CC1 [(−) -4-terpineol] | – | > 40 | – | > 40
5 | CC1=CCC2CC1C2(C)C (stereo not drawn) [(−)-α-pinene] | – | > 40 | – | > 40
6 | CCCCCCCCCCCCCCOC(=O)C(C)C [myristyl isobutyrate] | – | > 40 | – | > 40
